Consider 30 molecules from patent US20230016424A1, “HYBRID AMIDE DERIVATIVES OF AMPHOTERICIN B” (The Board of Trustees of the University of Illinois, priority 2019, published 2023).

One test concerns C. albicans SN250, C. albicans, C. krusei, C. glabrata, C. tropicalis, A. fumigatus 91, 1163, 1100. Put plainly: Average MIC over the tested strains. It is filed as cell-based. The conditions noted are these: Table 7, C16 amide AmB variants.
As for `CCC(O)CNC(=O)C1C(O)CC2(O)CC(O)CC(O)C(O)CCC(O)CC(O)CC(=O)OC(C)C(C)C(O)C(C)C=CC=CC=CC=CC=CC=CC=CC(OC3OC(C)C(O)C(N)C3O)CC1O2` (mixture of isomers) [FX], the “MIC (Average Minimum Inhibition Concentration)” value is 0.313 µM.

`CC(NC(=O)C1C(O)CC2(O)CC(O)CC(O)C(O)CCC(O)CC(O)CC(=O)OC(C)C(C)C(O)C(C)C=CC=CC=CC=CC=CC=CC=CC(OC3OC(C)C(O)C(N)C3O)CC1O2)C(N)=O` (stereo not drawn) [GJ]: the “MIC (Average Minimum Inhibition Concentration)” value amounted to 0.336 µM.

Take `COC(=O)C1(NC(=O)C2C(O)CC3(O)CC(O)CC(O)C(O)CCC(O)CC(O)CC(=O)OC(C)C(C)C(O)C(C)C=CC=CC=CC=CC=CC=CC=CC(OC4OC(C)C(O)C(N)C4O)CC2O3)CNC1` (stereo not drawn) [FC]: the “MIC (Average Minimum Inhibition Concentration)” value came to 0.516 µM.

Consider `CC1C=CC=CC=CC=CC=CC=CC=CC(OC2OC(C)C(O)C(N)C2O)CC2OC(O)(CC(O)CC(O)C(O)CCC(O)CC(O)CC(=O)OC(C)C(C)C1O)CC(O)C2C(=O)NC(CO)CO` (stereo not drawn) [DD], for which the “MIC (Average Minimum Inhibition Concentration)” value came to 0.375 µM.

Turning to `CC1C=CC=CC=CC=CC=CC=CC=CC(OC2OC(C)C(O)C(N)C2O)CC2OC(O)(CC(O)CC(O)C(O)CCC(O)CC(O)CC(=O)OC(C)C(C)C1O)CC(O)C2C(=O)NC1(C(N)=O)CNC1` (stereo not drawn) [GG], the “MIC (Average Minimum Inhibition Concentration)” value is 0.328 µM.

As for `CC1C=CC=CC=CC=CC=CC=CC=CC(OC2OC(C)C(O)C(N)C2O)CC2OC(O)(CC(O)CC(O)C(O)CCC(O)CC(O)CC(=O)OC(C)C(C)C1O)CC(O)C2C(=O)NCCS(C)(=O)=O` (stereo not drawn) [EE], the “MIC (Average Minimum Inhibition Concentration)” value came out at 0.422 µM.

For the molecule `CC1C=CC=CC=CC=CC=CC=CC=CC(OC2OC(C)C(O)C(N)C2O)CC2OC(O)(CC(O)CC(O)C(O)CCC(O)CC(O)CC(=O)OC(C)C(C)C1O)CC(O)C2C(=O)NCC(C)(C)F` (stereo not drawn) [EN], the “MIC (Average Minimum Inhibition Concentration)” value amounted to 0.469 µM.

`COCC(C)NC(=O)C1C(O)CC2(O)CC(O)CC(O)C(O)CCC(O)CC(O)CC(=O)OC(C)C(C)C(O)C(C)C=CC=CC=CC=CC=CC=CC=CC(OC3OC(C)C(O)C(N)C3O)CC1O2` (stereo not drawn) [EM]: the “MIC (Average Minimum Inhibition Concentration)” value was determined as 0.469 µM.

For the molecule `CC1C=CC=CC=CC=CC=CC=CC=CC(OC2OC(C)C(O)C(N)C2O)CC2OC(O)(CC(O)CC(O)C(O)CCC(O)CC(O)CC(=O)OC(C)C(C)C1O)CC(O)C2C(=O)NC1CCC(N)CC1` (stereo not drawn) [DU], the “MIC (Average Minimum Inhibition Concentration)” value was determined as 0.406 µM.

As to `CC1C=CC=CC=CC=CC=CC=CC=CC(OC2OC(C)C(O)C(N)C2O)CC2OC(O)(CC(O)CC(O)C(O)CCC(O)CC(O)CC(=O)OC(C)C(C)C1O)CC(O)C2C(=O)NCCOCC(N)=O` (stereo not drawn) [FD], the “MIC (Average Minimum Inhibition Concentration)” value stood at 0.516 µM.

Consider `CC1C=CC=CC=CC=CC=CC=CC=CC(OC2OC(C)C(O)C(N)C2O)CC2OC(O)(CC(O)CC(O)C(O)CCC(O)CC(O)CC(=O)OC(C)C(C)C1O)CC(O)C2C(=O)NCCN1CCOC1=O` (stereo not drawn) [ER], for which the “MIC (Average Minimum Inhibition Concentration)” value was found to be 0.484 µM.

Take `CC1C=CC=CC=CC=CC=CC=CC=CC(OC2OC(C)C(O)C(N)C2O)CC2OC(O)(CC(O)CC(O)C(O)CCC(O)CC(O)CC(=O)OC(C)C(C)C1O)CC(O)C2C(=O)NCCn1ncnn1` (stereo not drawn) [DN]: the “MIC (Average Minimum Inhibition Concentration)” value was 0.391 µM.

As for `C=CCNC(=O)C1C(O)CC2(O)CC(O)CC(O)C(O)CCC(O)CC(O)CC(=O)OC(C)C(C)C(O)C(C)C=CC=CC=CC=CC=CC=CC=CC(OC3OC(C)C(O)C(N)C3O)CC1O2` (stereo not drawn) [EL], the “MIC (Average Minimum Inhibition Concentration)” value stood at 0.453 µM.

In the case of `CC1C=CC=CC=CC=CC=CC=CC=CC(OC2OC(C)C(O)C(N)C2O)CC2OC(O)(CC(O)CC(O)C(O)CCC(O)CC(O)CC(=O)OC(C)C(C)C1O)CC(O)C2C(=O)NCCCS(N)(=O)=O` (stereo not drawn) [EP], the “MIC (Average Minimum Inhibition Concentration)” value amounted to 0.484 µM.

As to `CC1C=CC=CC=CC=CC=CC=CC=CC(OC2OC(C)C(O)C(N)C2O)CC2OC(O)(CC(O)CC(O)C(O)CCC(O)CC(O)CC(=O)OC(C)C(C)C1O)CC(O)C2C(=O)NC(CO)C(N)=O` (stereo not drawn) [GF], the “MIC (Average Minimum Inhibition Concentration)” value was determined as 0.324 µM.

`CC1C=CC=CC=CC=CC=CC=CC=CC(OC2OC(C)C(O)C(N)C2O)CC2OC(O)(CC(O)CC(O)C(O)CCC(O)CC(O)CC(=O)OC(C)C(C)C1O)CC(O)C2C(=O)N(CO)CCO` (stereo not drawn) [DW]: the “MIC (Average Minimum Inhibition Concentration)” value came to 0.419 µM.

Turning to `CC1C=CC=CC=CC=CC=CC=CC=CC(OC2OC(C)C(O)C(N)C2O)CC2OC(O)(CC(O)CC(O)C(O)CCC(O)CC(O)CC(=O)OC(C)C(C)C1O)CC(O)C2C(=O)N1CCNC(=O)C1` (stereo not drawn) [FH], the “MIC (Average Minimum Inhibition Concentration)” value stood at 0.531 µM.

For the molecule `CC1C=CC=CC=CC=CC=CC=CC=CC(OC2OC(C)C(O)C(N)C2O)CC2OC(O)(CC(O)CC(O)C(O)CCC(O)CC(O)CC(=O)OC(C)C(C)C1O)CC(O)C2C(=O)NC1C(O)C(O)OC(CO)C1O` (stereo not drawn) [FT], the “MIC (Average Minimum Inhibition Concentration)” value was 0.289 µM.

Regarding `CC1C=CC=CC=CC=CC=CC=CC=CC(OC2OC(C)C(O)C(N)C2O)CC2OC(O)(CC(O)CC(O)C(O)CCC(O)CC(O)CC(=O)OC(C)C(C)C1O)CC(O)C2C(=O)NC1CCCC(O)C1` (stereo not drawn) [GM], the “MIC (Average Minimum Inhibition Concentration)” value is 0.344 µM.

On to `CC1C=CC=CC=CC=CC=CC=CC=CC(OC2OC(C)C(O)C(N)C2O)CC2OC(O)(CC(O)CC(O)C(O)CCC(O)CC(O)CC(=O)OC(C)C(C)C1O)CC(O)C2C(=O)NC1CN(C(N)=O)C1` (stereo not drawn) [FB], for which the “MIC (Average Minimum Inhibition Concentration)” value came out at 0.516 µM.

Consider `CC1C=CC=CC=CC=CC=CC=CC=CC(OC2OC(C)C(O)C(N)C2O)CC2OC(O)(CC(O)CC(O)C(O)CCC(O)CC(O)CC(=O)OC(C)C(C)C1O)CC(O)C2C(=O)NCC1CCCO1` (stereo not drawn) [EZ], for which the “MIC (Average Minimum Inhibition Concentration)” value turned out to be 0.516 µM.

`CC1C=CC=CC=CC=CC=CC=CC=CC(OC2OC(C)C(O)C(N)C2O)CC2OC(O)(CC(O)CC(O)C(O)CCC(O)CC(O)CC(=O)OC(C)C(C)C1O)CC(O)C2C(=O)NC1C(O)COC(O)C1O` (mixture of isomers) [GE]: the “MIC (Average Minimum Inhibition Concentration)” value worked out at 0.320 µM.

On to `CC1C=CC=CC=CC=CC=CC=CC=CC(OC2OC(C)C(O)C(N)C2O)CC2OC(O)(CC(O)CC(O)C(O)CCC(O)CC(O)CC(=O)OC(C)C(C)C1O)CC(O)C2C(=O)N1CCC(N)C1` (stereo not drawn) [FE], for which the “MIC (Average Minimum Inhibition Concentration)” value worked out at 0.531 µM.

`CC1C=CC=CC=CC=CC=CC=CC=CC(OC2OC(C)C(O)C(N)C2O)CC2OC(O)(CC(O)CC(O)C(O)CCC(O)CC(O)CC(=O)OC(C)C(C)C1O)CC(O)C2C(=O)NC1C(O)OC(CO)C(O)C1O` (stereo not drawn) [FL]: the “MIC (Average Minimum Inhibition Concentration)” value was determined as 0.227 µM.

For `CC1C=CC=CC=CC=CC=CC=CC=CC(OC2OC(C)C(O)C(N)C2O)CC2OC(O)(CC(O)CC(O)C(O)CCC(O)CC(O)CC(=O)OC(C)C(C)C1O)CC(O)C2C(=O)NCCOCCN` (stereo not drawn) [DP], the “MIC (Average Minimum Inhibition Concentration)” value was 0.391 µM.

As to `CC(O)CNC(=O)C1C(O)CC2(O)CC(O)CC(O)C(O)CCC(O)CC(O)CC(=O)OC(C)C(C)C(O)C(C)C=CC=CC=CC=CC=CC=CC=CC(OC3OC(C)C(O)C(N)C3O)CC1O2` (stereo not drawn) [FJ], the “MIC (Average Minimum Inhibition Concentration)” value is 0.195 µM.

Staying with this test, now noted: Table 12, C16 amides of C2'epiAmB.
Consider `CC1C=CC=CC=CC=CC=CC=CC=CC(OC2OC(C)C(O)C(N)C2O)CC2OC(O)(CC(O)CC(O)C(O)CCC(O)CC(O)CC(=O)OC(C)C(C)C1O)CC(O)C2C(=O)NC1COCC1O` (stereo not drawn) [BP], for which the “Average MIC” value is 1.250 µM.

In the case of `CC1C=CC=CC=CC=CC=CC=CC=CC(OC2OC(C)C(O)C(N)C2O)CC2OC(O)(CC(O)CC(O)C(O)CCC(O)CC(O)CC(=O)OC(C)C(C)C1O)CC(O)C2C(=O)NC1CC1` (stereo not drawn) [BV], the “Average MIC” value turned out to be 3.063 µM.

`CC1C=CC=CC=CC=CC=CC=CC=CC(OC2OC(C)C(O)C(N)C2O)CC2OC(O)(CC(O)CC(O)C(O)CCC(O)CC(O)CC(=O)OC(C)C(C)C1O)CC(O)C2C(=O)NCCN` (stereo not drawn) [BT]: the “Average MIC” value is 1.750 µM.

Regarding `CNC(=O)C1C(O)CC2(O)CC(O)CC(O)C(O)CCC(O)CC(O)CC(=O)OC(C)C(C)C(O)C(C)C=CC=CC=CC=CC=CC=CC=CC(OC3OC(C)C(O)C(N)C3O)CC1O2` (stereo not drawn) [BS], the “Average MIC” value turned out to be 1.734 µM.
